Measured values published in patent US20230123334A1, “AMINO LIPID COMPOUND, PREPARATION METHOD THEREFOR, AND APPLICATION THEREOF” (SHENZHEN SHENXIN BIOTECHNOLOGY CO., LTD., priority 2020, published 2023).

Test system: HEK293 cells
Test: Preliminary screening as mRNA vectors, EGFP mRNA transfection of HEK293 cells
Format: cell-based
Conditions: EGFP mRNA 50 ng per well, 96-well plates; percentage of GFP fluorescent cells relative to total number of cells (Hoechst)
Description: Cell line: HEK293 cells (ATCC CRL-1573™)
Medium: DMEM supplemented with 10% fetal bovine serum (Invitrogen)
Screening: cell transfection on 96-well plates
Detection (readout): percentage of the number of GFP fluorescent cells relative to the total number of cells (the total number of cells was determined using nucleus dye Hoechst). Lipofectamine2000 (Invitrogen) was used as the positive control.
Method: the experimental method was basically the same with Example 4, and the mass of EGFP mRNA (TriLink) for transfection was 50 ng per well.

Compound	Absolute mRNA transfection efficiency in HEK293 cells
CCCCCCCCSc1nc(NCCN(C)C)nc(SCCCCCC)n1 [Compound D1S6S8]	0.7%
CCCCCCCCCCCCCCCSc1nc(NCCN2CCN(C)CC2)nc(N(CCCCCCCCCCCC)CCCCCCCCCCCC)n1 [D5S15^2N12]	0.9%
CCCCCCCCCCCCCCCCSc1nc(NCCCCCCCCCCCCC)nc(NCCCN2CCOCC2)n1 [Compound D8S16N13]	0.1%
CCCCCCCCCCCCCCCCCCSc1nc(NCCN2CCCCC2)nc(SCCCCCC)n1 [Compound D4S6S18]	8.8%
CCCCCCCCCCCCCCCCCCSc1nc(NCCCN2CCN(C)CC2)nc(SCCCCCC)n1 [Compound D9S6S18]	62.8%
CCCCCCCCCCCCNc1nc(NCCN2CCCC2)nc(SCCCCCC)n1 [Compound D3S6N12]	4.1%
CCCCCCCCCCCCCCCCCCSc1nc(NCCCCCCC)nc(NCCCN2CCOCC2)n1 [Compound D8S18N7]	3.9%
CCCCCCCCNc1nc(NCCCN(C)C)nc(SCCCCCCC)n1 [Compound D6S7N8]	2.8%
CCCCCCCCCCCNc1nc(NCCCN(C)C)nc(SCCCCCCC)n1 [Compound D6S7N11]	18.9%
CCCCCCCCCCCCCCCSc1nc(NCCCCCCCCCCC)nc(NCCN2CCOCC2)n1 [Compound D2S15N11]	3.3%
CCCCCCCCCCCCCCCCCCSc1nc(NCCCCCCCCC)nc(NCCN(C)C)n1 [Compound D1S18N9]	30.3%
CCCCCCCCCCCCCCCNc1nc(NCCCN2CCOCC2)nc(SCCCCCCCCC)n1 [Compound D8S9N15]	7.2%
CCCCCCCCCCCCCNc1nc(NCCCN2CCOCC2)nc(SCCCCCCC)n1 [Compound D8S7N13]	5.8%
CCCCCCCCCCCCCNc1nc(NCC2CCN(C)CC2)nc(SCCCCCC)n1 [Compound D10S6N13]	22.7%
CCCCCCCCCCCCCCCCCCNc1nc(NCCCN2CCN(C)CC2)nc(SCCCCCCCCC)n1 [Compound D9S9N18]	14.5%
CCCCCCCCCCCCCCCNc1nc(NCCN2CCCC2)nc(SCCCCCCCCCCCCCC)n1 [Compound D3S14N15]	3.6%
CCCCCCCCSc1nc(NCCCN2CCN(C)CC2)nc(SCCCCCC)n1 [Compound D9S6S8]	3.0%
CCCCCCCCCNc1nc(NCCN2CCOCC2)nc(SCCCCCCC)n1 [Compound D2S7N9]	8.7%
CCCCCCCCCCCCCCCCCCSc1nc(NCCCCCCCCCCC)nc(NCCCN2CCN(C)CC2)n1 [Compound D9S18N11]	4.3%
CCCCCCCCCCCCNc1nc(NCCN(CC)CC)nc(SCCCCCCCCCC)n1 [Compound D7S10N12]	10.6%
CCCCCCCCCCCCCCCNc1nc(NCCN(CC)CC)nc(SCCCCCCCCC)n1 [Compound D7S9N15]	11.7%
CCCCCCCCCCCSc1nc(NCCCCCCC)nc(NCCN2CCCC2)n1 [Compound D3S11N7]	8.0%

Compound	Absolute mRNA transfection efficiency in HEK293 cells
CCCCCCCCCCCCNc1nc(NCC2CCN(C)CC2)nc(SCCCCCCCCCC)n1 [Compound D10S10N12]	15.5%
CCCCCCCCCSc1nc(NCCN2CCN(C)CC2)nc(SCCCCCCC)n1 [Compound D5S7S9]	20.6%
CCCCCCCCCCSc1nc(NCCCCCCC)nc(NCCN2CCOCC2)n1 [Compound D2S10N7]	0.5%
CCCCCCCCCCCSc1nc(NCCCCCCC)nc(NCCN(CC)CC)n1 [Compound D7S11N7]	11.8%
CCCCCCCCCCCCN(CCCCCCCCCCCC)c1nc(NCCN2CCOCC2)nc(SCCCCCCCC)n1 [D2S8^2N12]	0.1%
CCCCCCCCCCCCCCCCNc1nc(NCC2CCN(C)CC2)nc(SCCCCCCCCC)n1 [Compound D10S9N16]	30.2%
CCCCCCCCCCCCCCCCSc1nc(NCCN(CC)CC)nc(SCCCCCCC)n1 [Compound D7S7S16]	10.7%
CCCCCCCCCCSc1nc(NCCCCCCCC)nc(NCCCN2CCN(C)CC2)n1 [Compound D9S10N8]	5.4%
CCCCCCCCCCCCCCCCSc1nc(NCCCCCCCCC)nc(NCCCN2CCOCC2)n1 [Compound D8S16N9]	2.1%
CCCCCCCCCCCCCCSc1nc(NCCCCCCC)nc(NCCN2CCCCC2)n1 [Compound D4S14N7]	4.5%
CCCCCCCCCCCCCCCSc1nc(NCCCCCCCCCCC)nc(NCCN(CC)CC)n1 [Compound D7S15N11]	5.0%
CCCCCCCCSc1nc(NCCN2CCCC2)nc(SCCCCCC)n1 [Compound D3S6S8]	1.6%
CCCCCCCCCCCCCCCSc1nc(NCCCCCCCC)nc(NCCN(CC)CC)n1 [Compound D7S15N8]	18.0%
CCCCCCCCCCCCCCCCSc1nc(NCCCCCCCCC)nc(NCCN2CCOCC2)n1 [Compound D2S16N9]	7.2%
CCCCCCCCCCCNc1nc(NCC2CCN(C)CC2)nc(SCCCCCCCCCC)n1 [Compound D10S10N11]	8.8%
CCCCCCCCCCCCCCCCSc1nc(NCCN2CCCC2)nc(N(CCCCCCCCCCCC)CCCCCCCCCCCC)n1 [D3S16^2N12]	0.2%
CCCCCCCSc1nc(NCC2CCN(C)CC2)nc(SCCCCCCC)n1 [Compound D10S7S7]	19.3%
CCCCCCCCCCCCCCSc1nc(NCCCN2CCOCC2)nc(SCCCCCC)n1 [Compound D8S6S14]	6.8%
CCCCCCCCCCCCCCCCCCNc1nc(NCCN2CCCCC2)nc(SCCCCCCCCCC)n1 [Compound D4S10N18]	37.7%
CCCCCCCCCCCCNc1nc(NCCN2CCOCC2)nc(SCCCCCC)n1 [Compound D2S6N12]	0.8%
CCCCCCCCCCCCCCCCCCSc1nc(NCCCCCC)nc(NCCCN(C)C)n1 [Compound D6S18N6]	74.8%
CCCCCCCCCCCNc1nc(NCCN(CC)CC)nc(SCCCCCCCCCCC)n1 [Compound D7S11N11]	35.0%

Compound	Absolute mRNA transfection efficiency in HEK293 cells
CCCCCCCCCCCCCCCNc1nc(NCCN2CCCC2)nc(SCCCCCCCCC)n1 [Compound D3S9N15]	67.9%
CCCCCCCCCNc1nc(NCCN(CC)CC)nc(SCCCCCC)n1 [Compound D7S6N9]	2.4%
CCCCCCCCCCCCCCSc1nc(NCCCCCCCCCCCCC)nc(NCC2CCN(C)CC2)n1 [Compound D10S14N13]	11.7%
CCCCCCCCCCCCCCCCSc1nc(NCCCCCC)nc(NCCN(CC)CC)n1 [Compound D7S16N6]	16.5%
CCCCCCCCCCCNc1nc(NCCCN(C)C)nc(SCCCCCCCCC)n1 [Compound D6S9N11]	58.8%
CCCCCCCCCCCCCCCCSc1nc(NCCN2CCCCC2)nc(N(CCCCCCCCCCCC)CCCCCCCCCCCC)n1 [D4S16^2N12]	0.3%
CCCCCCCCCCCCCCCCSc1nc(NCCCCCCCCCCCCCCC)nc(NCC2CCN(C)CC2)n1 [Compound D10S16N15]	2.6%
CCCCCCCCCCSc1nc(NCCN2CCCCC2)nc(SCCCCCCC)n1 [Compound D4S7S10]	2.7%
CCCCCCCCCCCCCCCCSc1nc(NCCCCCCC)nc(NCCN2CCOCC2)n1 [Compound D2S16N7]	10.0%
CCCCCCCCCCCCNc1nc(NCCCN2CCN(C)CC2)nc(SCCCCCCCC)n1 [Compound D9S8N12]	57.6%
CCCCCCCCCCCCSc1nc(NCCCCCC)nc(NCC2CCN(C)CC2)n1 [Compound D10S12N6]	0.2%
CCCCCCCCCCCCCCCSc1nc(NCCCCCCCCCCCCC)nc(NCCCN2CCN(C)CC2)n1 [Compound D9S15N13]	2.0%
CCCCCCCCCCCCCCCCCCNc1nc(NCCN2CCN(C)CC2)nc(SCCCCCCC)n1 [Compound D5S7N18]	38.5%
CCCCCCCCCCCCCCCCCCNc1nc(NCCN2CCCC2)nc(SCCCCCCCCCCC)n1 [Compound D3S11N18]	40.6%
CCCCCCCCCCCCCCCCNc1nc(NCCN2CCN(C)CC2)nc(SCCCCCCCCCC)n1 [Compound D5S10N16]	3.9%
CCCCCCCCCCCCCCCCSc1nc(NCCN2CCCC2)nc(SCCCCCC)n1 [Compound D3S6S16]	16.9%
CCCCCCCCNc1nc(NCCN2CCOCC2)nc(SCCCCCCC)n1 [Compound D2S7N8]	1.0%
CCCCCCCSc1nc(NCCCCCC)nc(NCCCN2CCOCC2)n1 [Compound D8S7N6]	1.8%
CCCCCCCCCCCCCCCCSc1nc(NCCCCCCCCCCCCCCC)nc(NCCCN(C)C)n1 [Compound D6S16N15]	0.1%
CCCCCCCCCCCCN(CCCCCCCCCCCC)c1nc(NCCN(CC)CC)nc(SCCCCCCCCCCC)n1 [D7S11^2N12]	0.7%
CCCCCCCCCCCCCCCSc1nc(NCCCCCCCCC)nc(NCCN2CCCC2)n1 [Compound D3S15N9]	15.4%
CCCCCCCCCNc1nc(NCCN2CCCC2)nc(SCCCCCC)n1 [Compound D3S6N9]	0.3%
